# Data published in PubChem BioAssay AID2060903 (Molecular Pharmacology Branch, DTP, NCI, 2025).
# Tested on: 377384-186-R-J1-PDC complex spheroid viability
# Test: Anticancer human tumor 377384-186-R-J1-PDC patient-derived pancreatic carcinoma cell line growth inhibition [RAS]
# Conditions: for IC50: curve of first compound; for viability, T/C: stronger effect = lower value
# Description: RAS pathway inhibitors in Combinations in Complex Spheroids
# A high-throughput screen of multi-cell type tumor spheroids was designed to identify active combinations of RAS pathway inhibitors and targeted small molecules. Complex spheroids include a stromal component modeled by human endothelial cells (HUVEC) and fibroblasts modeled by human mesenchymal stem cells (MSCs). The concentration ranges selected for each drug and investigational agent were based upon clinically achievable concentrations if the clinical Cmax of the agent was known.
# Compounds. The drugs and investigational agents: abemaciclib (NSC768073), cobimetinib (NSC768068), divarasib (GDC6063, NSC841802), docetaxel (NSC628503), GDC-1971 (RLY-1971, NSC841576), gemcitabine (NSC613327), inavolisib (NSC800729), ipatasertib (NSC767898), KB-0742 (NSC834161), MRTX-1133 (NSC836407), osimertinib (NSC779217), RMC-4630 (NSC839698), RMC-6236 (NSC851965), RMC-6291 (NSC852671), Ro-3306 (NSC812927), sapanisertib (NSC764658), SN-38 (NSC673596), staurosporine (NSC755774), SY5609 (NSC837396), and tovorafenib (DAY101, NSC766906), were obtained from the National Cancer Institute (NCI) Developmental Therapeutics Program Chemical Repository. The FDA-approved anticancer drug set is available from the NCI Developmental Therapeutics Program. […] The stock solutions were prepared in dimethyl sulfoxide (DMSO, Sigma-Aldrich, St. Louis, MO, cat. D2650) at 800-fold the tested concentration and stored at -70 degrees C prior to their use. All drugs and investigational agents were tested over a range starting from a high concentration at or near the clinical Cmax and decreasing in half-log increments. If the clinical Cmax for an agent had not been determined, the highest concentration tested was 10 microM.
# Cell Culture. All cells were maintained in an incubator at 37 degrees C and 5% CO2 with 95% humidity. The PDC lines were cultured according to standard operating procedures established by the NCI PDMR. All PDCs were thawed and cultured in Matrigel-coated flasks prepared with a working solution of 1X Ham's F-12 nutrient mix, without supplementation (Invitrogen, Waltham, MA, cat. 11765054), 100 U/mL penicillin-streptomycin (Invitrogen, cat. 15140122), and 2.5% Matrigel (Corning Inc., Corning, NY, cat. 354248) for the first three passages. The 362531-283-R-J2-PDC and 782815-120-R-J1-PDC lines were cultured in 6C/Colon 1B media, which includes advanced DMEM/F-12 (Thermo Fisher Scientific, cat. 12634028), 10 mM HEPES (Thermo Fisher Scientific, cat. 15630080), 1X GlutaMAX supplement (Thermo Fisher Scientific, cat. 35050061), 0.1 mg/mL primocin (InvivoGen, San Diego, CA, cat. ant-pm-2), 10% defined fetal bovine serum, heat inactivated (HyClone Laboratories Inc., Logan, UT, cat. SH30070.03HI), 50% L-WRN conditioned media (ATCC, cat. CRL-3276), 1.25 mM N-Acetyl-L-cysteine (Sigma-Aldrich, cat. A9165), 10 mM nicotinamide (Sigma-Aldrich, cat. N0636), 1X B-27 supplement (Thermo Fisher Scientific, cat. 17504044), 1X N-2 supplement (Thermo Fisher Scientific, cat. 17502048), 50 ng/mL human EGF (Thermo Fisher Scientific, cat. PHG0311), and 10 microM Y-27632 dihydrochloride (Tocris Bioscience, cat. 1254). The K12877-001-R-J1-PDC line was cultured in 6I media, which includes all 6C/Colon 1B media plus 10 ng/mL human FGF-10 (PeproTech, cat. 100-26), 1 ng/mL human FGF-2 (PeproTech, cat. 100-18B), 1 µM prostaglandin E2 (Tocris Bioscience, cat. 2296), […] hydrocortisone (Sigma-Aldrich, cat. H4001), and […] bovine insulin (Sigma-Aldrich, cat. I6634). The K86415-001-R-J1-PDC line was cultured in 6D media, which includes all 6C/Colon 1B media components minus the L-WRN conditioned media. The 485176-168-R4-J1-PDC was cultured in PANC media, which includes all 6C/Colon 1B media plus 100 ng/mL human FGF-10 (PeproTech, cat. 100-26), 500 nM SB-431542 (Selleckchem, cat. S1067), and 10 nM gastrin (Tocris Bioscience, cat. 3006). […]
# 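Further: spheroids exposed to compounds for seven days before readout.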
smiles,measurement,setting,value
O=C(c1ccc(F)c(F)c1Nc1ccc(I)cc1F)N1CC(O)([C@@H]2CCCCN2)C1 + C#Cc1c(F)ccc2cc(O)cc(-c3ncc4c(N5CC6CCC(C5)N6)nc(OCC56CCCN5CC(F)C6)nc4c3F)c12,IC50,second compound 0.0316 µM,< 3.16 nM
same,IC50,second compound 0.1 µM,< 3.16 nM
same,IC50,second compound 0.316 µM,< 3.16 nM
same,IC50,second compound 1 µM,< 3.16 nM
same,IC50,second compound 3.16 µM,< 3.16 nM
same,IC50,second compound 10 µM,< 3.16 nM
same,"viability, T/C","second compound 0.0316 µM, first compound 0.00316 µM",19.3%
same,"viability, T/C","second compound 0.0316 µM, first compound 0.01 µM",12%
same,"viability, T/C","second compound 0.0316 µM, first compound 0.0316 µM",5.6%
same,"viability, T/C","second compound 0.0316 µM, first compound 0.1 µM",2.35%
same,"viability, T/C","second compound 0.0316 µM, first compound 0.316 µM",0.7%
same,"viability, T/C","second compound 0.0316 µM, first compound 1 µM",0.29%
same,"viability, T/C","second compound 0.1 µM, first compound 0.00316 µM",6.37%
same,"viability, T/C","second compound 0.1 µM, first compound 0.01 µM",4.57%
same,"viability, T/C","second compound 0.1 µM, first compound 0.0316 µM",2.3%
same,"viability, T/C","second compound 0.1 µM, first compound 0.1 µM",1.43%
same,"viability, T/C","second compound 0.1 µM, first compound 0.316 µM",0.58%
same,"viability, T/C","second compound 0.1 µM, first compound 1 µM",0.35%
same,"viability, T/C","second compound 0.316 µM, first compound 0.00316 µM",4.21%
same,"viability, T/C","second compound 0.316 µM, first compound 0.01 µM",2.12%
same,"viability, T/C","second compound 0.316 µM, first compound 0.0316 µM",1.39%
same,"viability, T/C","second compound 0.316 µM, first compound 0.1 µM",0.91%
same,"viability, T/C","second compound 0.316 µM, first compound 0.316 µM",0.54%
same,"viability, T/C","second compound 0.316 µM, first compound 1 µM",0.22%
same,"viability, T/C","second compound 1 µM, first compound 0.00316 µM",1.85%
same,"viability, T/C","second compound 1 µM, first compound 0.01 µM",1.57%
same,"viability, T/C","second compound 1 µM, first compound 0.0316 µM",1.12%
same,"viability, T/C","second compound 1 µM, first compound 0.1 µM",1.04%
same,"viability, T/C","second compound 1 µM, first compound 0.316 µM",0.42%
same,"viability, T/C","second compound 1 µM, first compound 1 µM",0.15%
same,"viability, T/C","second compound 3.16 µM, first compound 0.00316 µM",1.79%
same,"viability, T/C","second compound 3.16 µM, first compound 0.01 µM",1.3%
same,"viability, T/C","second compound 3.16 µM, first compound 0.0316 µM",1.31%
same,"viability, T/C","second compound 3.16 µM, first compound 0.1 µM",0.67%
same,"viability, T/C","second compound 3.16 µM, first compound 0.316 µM",0.2%
same,"viability, T/C","second compound 3.16 µM, first compound 1 µM",0.21%
same,"viability, T/C","second compound 10 µM, first compound 0.00316 µM",1.29%
same,"viability, T/C","second compound 10 µM, first compound 0.01 µM",0.68%
same,"viability, T/C","second compound 10 µM, first compound 0.0316 µM",0.68%
same,"viability, T/C","second compound 10 µM, first compound 0.1 µM",0.65%
same,"viability, T/C","second compound 10 µM, first compound 0.316 µM",0.38%
same,"viability, T/C","second compound 10 µM, first compound 1 µM",0.17%
